Consider 56 compounds from BindingDB's records for doi:10.1016/s0960-894x(00)00113-x (Kyoto University, 2000).

A short description of this assay: The compound was tested for its inhibitory activity against platelet aggregation.

As a reminder, the IC50 is the concentration that gives 50% inhibition. Low values mean greater potency in that assay, high ones weaker potency in that assay. Consider `C[C@@H](NC(=O)c1ccc(C(=N)N)cc1)C(C)(C)C(=O)N1CCC(CC(=O)O)CC1`, for which the IC50 came out at 41 nM. This counts as double-digit nanomolar. For the compound `CC(C)(C(=O)N1CCC(CC(=O)O)CC1)[C@H](NC(=O)c1ccc(C(=N)N)cc1Cl)c1ccccc1`, the IC50 turned out to be 186 nM. For the compound `N=C(N)c1ccc(C(=O)N[C@@H](CC(=O)N2CCC(CC(=O)O)CC2)C(=O)Oc2ccccc2)cc1`, the midpoint of inhibition, the IC50, lay at 4070 nM. In turn, `CC[C@@H](NC(=O)c1ccc(C(=N)N2CCSC2)cc1F)C(C)(C)C(=O)N1CCC(CC(=O)O)CC1` returned an IC50 of 22 nM. This IC50 lies about 180-fold lower than the previous one. Consider `CC(C)(C(=O)N1CCC(CC(=O)O)CC1)[C@H](NC(=O)c1ccc(C(=N)N)cc1)c1ccc(O)cc1`, for which it took 110 nM to reach half-maximal inhibition (IC50). This IC50 is about 5-fold higher than that of the compound before.

Regarding `CC(C)(C(=O)/C=C/c1ccc(C(=N)N)cc1)C(=O)N1CCC(CC(=O)O)CC1`, the IC50 turned out to be 3470 nM. As for `C[C@H](NC(=O)c1ccc(C(=N)N)cc1)C(=O)N1CCC(CC(=O)O)CC1`, the IC50 turned out to be 30200 nM. Against the preceding compound, the IC50 is about 8.7-fold higher.

In the case of `CN(CC(=O)N1CCC(CC(=O)O)CC1)C(=O)c1ccc(N=C(N)N)cc1`, the IC50 is 759000 nM. To `NC(N)=Nc1ccc(C(=O)NCCC(=O)N2CCC(C(=O)O)CC2)cc1` belongs 759000 nM; to `N=C(N)c1ccc(C(=O)N[C@H](CC(=O)N2CCC(CC(=O)O)CC2)c2ccccc2)cc1`, 5250 nM. Then `C#CCN(C(=O)c1ccc(C(=N)N)cc1)[C@H](CCCC)C(C)(C)C(=O)N1CCC(CC(=O)O)CC1`, with 708 nM; and `CN(CC(=O)N1CCC(C(=O)O)CC1)C(=O)c1ccc(CNC(=N)N)cc1`, with 52500 nM; and `CCC[C@@H](NC(=O)c1ccc(C(=N)N)cc1)C(C)(C)C(=O)N1CCC(CC(=O)O)CC1`, with 41 nM. In turn, `CC(C)(C(=O)N1CCC(CC(=O)O)CC1)C(O)/C=C/c1ccc(C(=N)N)cc1` (stereo unspecified) yielded an IC50 of 302 nM. Compared with the last compound, the IC50 is about 7.4-fold higher. The compound `CC(C)(C(=O)N1CCC(CC(=O)O)CC1)[C@H](NC(=O)c1ccc(C(=N)N)cc1)c1cccc(Cl)c1` gave an IC50 of 126 nM. In turn, `CC[C@@H](NC(=O)c1ccc(C(=N)N2CCOCC2)cc1F)C(C)(C)C(=O)N1CCC(CC(=O)O)CC1` displayed a concentration for half-maximal inhibition (IC50) of 79 nM. Compared with the last compound, the IC50 is about 1.6-fold lower. In turn, `CCCC[C@@H](NC(=O)c1ccc(C(=N)N)cc1F)C(C)(C)C(=O)N1CCC(CC(=O)O)CC1` came in with an IC50 of 37 nM. For the compound `N=C(N)c1ccc(C(=O)NCCC(=O)N2CCC(C(=O)O)CC2)cc1`, the IC50 is 33100 nM. For `CC[C@@H](NC(=O)c1ccc(C(=N)N2CCN(c3ccc(F)cc3)CC2)cc1F)C(C)(C)C(=O)N1CCC(CC(=O)O)CC1`, the IC50 came to 40 nM. `CC[C@@H](NC(=O)c1ccc(C(=N)N2CCN(C)CC2)cc1F)C(C)(C)C(=O)N1CCC(CC(=O)O)CC1` registered an IC50 of 36 nM. To `COC(/C=C/c1ccc(C(=N)N)cc1)C(C)(C)C(=O)N1CCC(CC(=O)O)CC1` (stereo unspecified) belongs 126 nM; to `N=C(N)c1ccc(C(=O)NCCC(=O)N2CCC(COC(=O)O)CC2)cc1`, 18200 nM; to `CC(C)(C(=O)N1CCC(CC(=O)O)CC1)C(/C=C/c1ccc(C(=N)N)cc1)OCc1ccccc1` (stereo unspecified), 363 nM. `CN(CC(=O)N1CCC(C(=O)O)CC1)C(=O)c1ccc(N=C(N)N)cc1` gave an IC50 of 100000 nM. `CC(C)(C(=O)N1CCC(CC(=O)O)CC1)[C@H](NC(=O)c1ccc(C(=N)N)cc1)c1cccc(O)c1` registered an IC50 of 38 nM. Regarding `C=CCOC(/C=C/c1ccc(C(=N)N)cc1)C(C)(C)C(=O)N1CCC(CC(=O)O)CC1` (stereo unspecified), inhibition was half-maximal at 135 nM (IC50). Then `CC(C)(C(=O)N1CCC(CC(=O)O)CC1)[C@H](NC(=O)c1ccc(C(=N)N)cc1)c1ccc2ccccc2c1`, with 191 nM; and `C[C@H](NC(=O)c1ccc(CNC(=N)N)cc1)C(=O)N1CCC(C(=O)O)CC1`, with 708000 nM. `CC(C)(/C=C/C(=O)c1ccc(C(=N)N)cc1)C(=O)N1CCC(CC(=O)O)CC1` [{1-[(E)-5-(4-Carbamimidoyl-phenyl)-2,2-dimethyl-5-oxo-pent-3-enoyl]-piperidin-4-yl}-acetic acid]: the IC50 worked out at 209 nM. This IC50 is about 3400-fold lower than that of the compound before. Then `CC(C)(C(=O)N1CCC(CC(=O)O)CC1)[C@@H](CCc1ccccc1)NC(=O)c1ccc(C(=N)N)cc1`, with 79 nM. To `CCCC[C@@H](NC(=O)c1ccc(C(=N)N)cc1)C(C)(C)C(=O)N1CCC(CC(=O)O)CC1` belongs 41 nM; to `CC(C)C[C@@H](NC(=O)c1ccc(C(=N)N)cc1)C(C)(C)C(=O)N1CCC(CC(=O)O)CC1`, 41 nM; to `CC(C)(C(=O)N1CCC(CC(=O)O)CC1)[C@H](NC(=O)c1ccc(C(=N)N)cc1)c1ccc(Cl)cc1`, 331 nM. For `CN(C(=O)c1ccc(C(=N)N)cc1)[C@H](c1ccccc1)C(C)(C)C(=O)N1CCC(CC(=O)O)CC1`, the IC50 came out at 151 nM. As for `CC(C)(C(=O)N1CCC(CC(=O)O)CC1)[C@H](NC(=O)c1ccc(C(=N)N)cc1)c1ccccc1`, 115 nM corresponded to half-maximal inhibition (IC50). The IC50 values of the last two compounds are within 1.5-fold of each other. Compound `CCCCCCOC(/C=C/c1ccc(C(=N)N)cc1)C(C)(C)C(=O)N1CCC(CC(=O)O)CC1` (stereo unspecified) registered an IC50 of 794 nM. To `COC(=O)C1CCN(C(=O)CN(C)C(=O)c2ccc(C(=N)N)cc2)CC1` belongs 331000 nM; to `COC(CCc1ccc(C(=N)N)cc1)C(C)(C)C(=O)N1CCC(CC(=O)O)CC1` (stereo unspecified), 240 nM; to `CC(C)[C@@H](NC(=O)c1ccc(C(=N)N)cc1)C(C)(C)C(=O)N1CCC(CC(=O)O)CC1`, 76 nM. To `CCCCNC(=N)c1ccc(C(=O)N[C@H](CC)C(C)(C)C(=O)N2CCC(CC(=O)O)CC2)c(F)c1` belongs 501 nM; to `CN(CCC(=O)N1CCC(CC(=O)O)CC1)C(=O)c1ccc(C(=N)N)cc1`, 6460 nM. In the case of `C[C@H](NC(=O)c1ccc(C(=N)N)cc1)C(=O)N1CCC(C(=O)O)CC1`, inhibition was half-maximal at 110000 nM (IC50). Then `C/C=C/[C@@H](NC(=O)c1ccc(C(=N)N)cc1)C(C)(C)C(=O)N1CCC(CC(=O)O)CC1`, with 85 nM. For the compound `C[C@@H](CC(=O)N1CCC(CC(=O)O)CC1)NC(=O)c1ccc(C(=N)N)cc1`, the IC50 amounted to 5010 nM. The compound `C[C@@H](NC(=O)c1ccc(C(=N)N)cc1F)C(C)(C)C(=O)N1CCC(CC(=O)O)CC1` returned an IC50 of 38 nM. Then `CN(CC(=O)N1CCC(CC(=O)O)CC1)C(=O)c1ccc(C(=N)N)cc1`, with 7590 nM; and `CC[C@@H](NC(=O)c1ccc(C(=N)N2CCCC2)cc1F)C(C)(C)C(=O)N1CCC(CC(=O)O)CC1`, with 45 nM; and `CCOC(/C=C/c1ccc(C(=N)N)cc1)C(C)(C)C(=O)N1CCC(CC(=O)O)CC1` (stereo unspecified), with 129 nM. Compound `CC(C)[C@@H](CC(=O)N1CCC(CC(=O)O)CC1)NC(=O)c1ccc(C(=N)N)cc1` registered an IC50 of 9120 nM. Then `CC[C@@H](NC(=O)c1ccc(C(=N)N2CCC(O)CC2)cc1F)C(C)(C)C(=O)N1CCC(CC(=O)O)CC1`, with 24 nM; and `CCCCC[C@@H](NC(=O)c1ccc(C(=N)N)cc1)C(C)(C)C(=O)N1CCC(CC(=O)O)CC1`, with 79 nM; and `CC(C)(CCC(=O)c1ccc(C(=N)N)cc1)C(=O)N1CCC(CC(=O)O)CC1`, with 631 nM. Compound `CC(C)(CNC(=O)c1ccc(C(=N)N)cc1)C(=O)N1CCC(CC(=O)O)CC1` [{1-[3-(4-Carbamimidoyl-benzoylamino)-2,2-dimethyl-propionyl]-piperidin-4-yl}-acetic acid] yielded an IC50 of 575 nM. The IC50 values of the last two compounds are within 1.5-fold of each other. To `CC[C@@H](NC(=O)c1ccc(C(=N)N)cc1F)C(C)(C)C(=O)N1CCC(CC(=O)O)CC1` belongs 31 nM. To `CC[C@@H](NC(=O)c1ccc(C(=N)N)cc1)C(C)(C)C(=O)N1CCC(CC(=O)O)CC1` belongs 43 nM. To `N=C(N)c1ccc(C(=O)N[C@@H](CC(=O)N2CCC(CC(=O)O)CC2)C(=O)OC2CCCCC2)cc1` belongs 1900 nM.
